Results as given in paper PMC10294875, “Ether Derivatives of Naringenin and Their Oximes as Factors Modulating Bacterial Adhesion” (Antibiotics, 2023).
In brackets after ≈: the same amount, converted by molar mass. One block for each compound: values may come before it.

Assays:
[1] = tested on: Enterococcus faecalis (ATCC 29212); assay: Adhesion assay, static conditions: E. faecalis to 3T3-L1 cell line; format: cell-based
Protocol: (§1) The study used two reference strains, Escherichia coli K12 (ATCC 10798) and Enterococcus faecalis (ATCC 29212), obtained from the American Type Culture Collection. Both strains were stored in trypticase soy broth (TSB; OXOID, Basingstoke, UK) with the addition of 30% glycerol at −70 °C in the museum resources of the Department of Microbiology at the Wroclaw Medical University.
(§2) For studies determining the interaction of bacteria with eukaryotic cells, suspensions of the tested strains were prepared in Luria broth (LB, Becton, Dickinson and Company, USA) medium with a bacterial density of 6 × 10^8 CFU/mL.
(§3) The adhesion ability of the tested bacterial strains to HT-29 and 3T3-L1 cell lines was determined by an in vitro adhesion assay as described previously. Eukaryotic cells were infected with prokaryotic cells in the presence of the examined compounds in pre-selected concentrations at an MOI (multiplicity of infection) ratio of 50. Cells were exposed to the tested strains and compounds for 2 h. After this time, unbound bacteria were removed by washing with PBS (Life Technologies Corporation, Carlsbad, CA, USA). The lysates acquired by cell lysis (0.5% Triton X-100 in LB): 90 min, 37 °C, 5% CO2 atmosphere, were then seeded onto TSA and MC media for E. faecalis and E. coli, respectively. The assays were performed in at least three independent experiments (cells from subsequent passages), each in triplicate. A control without tested compounds was set for each strain.

HT-29 cell line = assay: SRB assay, antiproliferative activity against HT-29; format: cell-based, human; settings: for IC50: Homo sapiens; for cytotoxic / antiproliferative effect against HT-29 (in words): SRB, tested concentration range 1–100 µg/mL
Protocol: (§4) The human adenocarcinoma cell line, HT-29 (ATCC HTB-38), was cultured in αMEM medium (IITD PAN) supplemented with 10% fetal bovine serum, FBS (Sigma-Aldrich, Taufkirchen, Germany), 100 U/mL penicillin, 100 µg/mL streptomycin antibiotic solution (Sigma-Aldrich, Taufkirchen, Germany), and 2 mM glutamine solution (Sigma-Aldrich, Taufkirchen, Germany). Cells from less than 20 passages were used for the study. In turn, preadipocytes from mouse embryos with the morphology of fibroblast cells, line 3T3-L1 (ATCC CL-173), were cultured in DMEM high-glucose medium (Life Technologies Corporation, Carlsbad, CA, USA) with the same supplements as above. Cells from less than 14 passages were used for the study. Both tested cell lines were grown at 37 °C in 5% CO2.
(§5) The effect of O-alkyl derivatives of naringenin and their oximes on eukaryotic cells was checked using a slightly modified SRB test described earlier. Firstly, HT-29 (1 × 10^5 cells/mL) and 3T3-L1 (5 × 10^4 cells/mL) cell lines were incubated in adherent microtiter plates under the conditions described above. The cells were then treated for 2 h with the tested compounds 1a–10a and 1b–10b at concentrations of 1, 5, 10, 25, 50, 75, and 100 µg/mL each. After this time, the medium was removed and replaced with one containing 50% (wt/vol) trichloroacetic acid (TCA; Sigma-Aldrich, Taufkirchen, Germany). Following 1 h of incubation at 4 °C, the plate was rinsed with water, and then an acidic solution of 0.4% sulforhodamine B (SRB) (Sigma-Aldrich, Taufkirchen, Germany), was added to the dried wells and incubated in the dark for half an hour. At the end of this time, the SRB solution was replaced by 1% (vol/vol) acetic acid, and the stained protein precipitate was dissolved in 10 mM Tris base solution (pH 10.5). Absorbance was measured at 560 nm in a plate reader (GloMax Discover Microplate Reader, Promega).
(§6) The cytotoxic effect of O-alkyl derivatives of naringenin and their oximes on eukaryotic cells was expressed as the concentration of the tested compounds at which 50% growth inhibition of the tested cell lines was observed. Values were presented in the form of the survival index (SI)–IC50. All determinations were repeated in three independent experiments, each performed in three technical replicates. Moreover, the effect of DMSO (Sigma-Aldrich, Taufkirchen, Germany), the solvent present in all the initial solutions of the tested compounds, on the growth of the cell lines used in the study was also verified.

3T3-L1 cell line = assay: SRB assay, antiproliferative activity against 3T3-L1; format: cell-based, mouse; settings: for IC50: Mus musculus; for cytotoxic / antiproliferative effect against 3T3-L1 (in words): SRB, tested concentration range 1–100 µg/mL
Protocol: as §4, §5, §6

[2] = tested on: Escherichia coli K12 (ATCC 10798); assay: Adhesion assay, static conditions: E. coli to 3T3-L1 cell line; format: cell-based
Protocol: as §1, §2, §3

[3] = tested on: Escherichia coli K12 (ATCC 10798); assay: Adhesion assay, static conditions: E. coli to HT-29 cell line; format: cell-based
Protocol: as §1, §2, §3

[4] = 2 h incubation, SRB assay, HT-29
[5] = 2 h incubation, SRB assay, 3T3-L1

Structure (SMILES): CCCCCCCCCOc1cc(O)c2c(c1)O[C@H](c1ccc(O)cc1)CC2=NO [Compound 7b, 7-O-nonylnaringenin oxime]
effect on adhesion of E. faecalis to 3T3-L1 (in words) [1]: often actually limited the attachment
IC50 (HT-29 cell line; [4]): 57.8 µg/mL (≈ 140 µM)
cytotoxic / antiproliferative effect against HT-29 (in words) (HT-29 cell line): cytotoxic effects
IC50 (3T3-L1 cell line; [5]): 41.6 µg/mL (≈ 101 µM)

IC50 (HT-29 cell line; [4]): > 100 µg/mL
Structure (SMILES): CCCCCCOc1ccc([C@@H]2CC(=NO)c3c(O)cc(OCCCCCC)cc3O2)cc1 [Compound 2b, 7,4’-di-O-hexylnaringenin oxime]
IC50 (3T3-L1 cell line; [5]): > 100 µg/mL

Structure (SMILES): CCCCCCCCCCCOc1cc(O)c2c(c1)O[C@H](c1ccc(O)cc1)CC2=NO [Compound 9b, 7-O-undecylnaringenin oxime]
effect on adhesion of E. faecalis to 3T3-L1 (in words) [1]: often actually limited the attachment
IC50 (HT-29 cell line; [4]): > 100 µg/mL
IC50 (3T3-L1 cell line; [5]): > 100 µg/mL

IC50 (HT-29 cell line; [4]): > 100 µg/mL
Structure (SMILES): CCCCCCCCOc1ccc([C@@H]2CC(=O)c3c(O)cc(OCCCCCCCC)cc3O2)cc1 [Compound 6a, 7,4’-di-O-octylnaringenin]
cytotoxic / antiproliferative effect against HT-29 (in words) (HT-29 cell line): no effect
IC50 (3T3-L1 cell line; [5]): > 100 µg/mL
cytotoxic / antiproliferative effect against 3T3-L1 (in words) (3T3-L1 cell line): no effect

Structure (SMILES): CCCCCCOc1cc(O)c2c(c1)O[C@H](c1ccc(O)cc1)CC2=O [Compound 1a, 7-O-hexylnaringenin]
IC50 lower than compound 7a (ratio) (HT-29 cell line; HT-29, 1a vs 7a): 1.8 times
IC50 (HT-29 cell line; [4]): 25.4 µg/mL (≈ 71.2 µM)
cytotoxic / antiproliferative effect against HT-29 (in words) (HT-29 cell line): antiproliferative activity
IC50 (3T3-L1 cell line; [5]): 25.8 µg/mL (≈ 72.4 µM)
cytotoxic / antiproliferative effect against 3T3-L1 (in words) (3T3-L1 cell line): cytotoxic activity

IC50 (HT-29 cell line; [4]): 38.4 µg/mL (≈ 99.7 µM)
Structure (SMILES): CCCCCCCCOc1cc(O)c2c(c1)O[C@H](c1ccc(O)cc1)CC2=O [Compound 5a, 7-O-octylnaringenin]
cytotoxic / antiproliferative effect against HT-29 (in words) (HT-29 cell line): antiproliferative activity
IC50 (3T3-L1 cell line; [5]): 20.1 µg/mL (≈ 52.3 µM)
cytotoxic / antiproliferative effect against 3T3-L1 (in words) (3T3-L1 cell line): cytotoxic activity

Structure (SMILES): CCCCCCCCOc1cc(O)c2c(c1)O[C@H](c1ccc(O)cc1)CC2=NO [Compound 5b, 7-O-octylnaringenin oxime]
IC50 (HT-29 cell line; [4]): 49.8 µg/mL (≈ 125 µM)
cytotoxic / antiproliferative effect against HT-29 (in words) (HT-29 cell line): cytotoxic effects
IC50 (3T3-L1 cell line; [5]): 49.9 µg/mL (≈ 125 µM)

Structure (SMILES): ON=C1C[C@@H](c2ccc(O)cc2)Oc2cc(O)cc(O)c21 [NGOX, naringenin oxime, reference compound]
IC50 HT-29 (HT-29 cell line; [4]): >100 µg/mL
IC50 3T3-L1 (3T3-L1 cell line; [5]): >100 µg/mL

IC50 (HT-29 cell line; [4]): > 100 µg/mL
Structure (SMILES): CCCCCCOc1ccc([C@@H]2CC(=O)c3c(O)cc(OCCCCCC)cc3O2)cc1 [Compound 2a, 7,4’-di-O-hexylnaringenin]
cytotoxic / antiproliferative effect against HT-29 (in words) (HT-29 cell line): no effect
IC50 (3T3-L1 cell line; [5]): > 100 µg/mL
cytotoxic / antiproliferative effect against 3T3-L1 (in words) (3T3-L1 cell line): no effect

Structure (SMILES): CCCCCCCCCCCOc1ccc([C@@H]2CC(=O)c3c(O)cc(OCCCCCCCCCCC)cc3O2)cc1 [Compound 10a, 7,4’-di-O-undecylnaringenin]
bacterial adhesion disturbed (decrease), E. coli to 3T3-L1 ([2]; regardless of the concentration used): ≈ 2 fold
IC50 (HT-29 cell line; [4]): > 100 µg/mL
cytotoxic / antiproliferative effect against HT-29 (in words) (HT-29 cell line): no effect
IC50 (3T3-L1 cell line; [5]): > 100 µg/mL
cytotoxic / antiproliferative effect against 3T3-L1 (in words) (3T3-L1 cell line): no effect

IC50 (HT-29 cell line; [4]): 28.7 µg/mL (≈ 77.5 µM)
Structure (SMILES): CCCCCCCOc1cc(O)c2c(c1)O[C@H](c1ccc(O)cc1)CC2=O [Compound 3a, 7-O-heptylnaringenin]
cytotoxic / antiproliferative effect against HT-29 (in words) (HT-29 cell line): antiproliferative activity
IC50 (3T3-L1 cell line; [5]): 25.6 µg/mL (≈ 69 µM)
cytotoxic / antiproliferative effect against 3T3-L1 (in words) (3T3-L1 cell line): cytotoxic activity

IC50 (HT-29 cell line; [4]): > 100 µg/mL
Structure (SMILES): CCCCCCCOc1ccc([C@@H]2CC(=O)c3c(O)cc(OCCCCCCC)cc3O2)cc1 [Compound 4a, 7,4’-di-O-heptylnaringenin]
cytotoxic / antiproliferative effect against HT-29 (in words) (HT-29 cell line): no effect
IC50 (3T3-L1 cell line; [5]): > 100 µg/mL
cytotoxic / antiproliferative effect against 3T3-L1 (in words) (3T3-L1 cell line): no effect

Structure (SMILES): CCCCCCCCCCCOc1ccc([C@@H]2CC(=NO)c3c(O)cc(OCCCCCCCCCCC)cc3O2)cc1 [Compound 10b, 7,4’-di-O-undecylnaringenin oxime]
IC50 (HT-29 cell line; [4]): 48.2 µg/mL (≈ 80.9 µM)
IC50 (3T3-L1 cell line; [5]): > 100 µg/mL

Structure (SMILES): CCCCCCCCCCCOc1cc(O)c2c(c1)O[C@H](c1ccc(O)cc1)CC2=O [Compound 9a, 7-O-undecylnaringenin]
effect on adhesion of E. faecalis to 3T3-L1 (in words) [1]: often actually limited the attachment
IC50 (HT-29 cell line; [4]): > 100 µg/mL
IC50 (3T3-L1 cell line; [5]): 80.6 µg/mL (≈ 189 µM)
cytotoxic / antiproliferative effect against 3T3-L1 (in words) (3T3-L1 cell line): cytotoxic activity

IC50 (HT-29 cell line; [4]): > 100 µg/mL
Structure (SMILES): CCCCCCCCCOc1ccc([C@@H]2CC(=O)c3c(O)cc(OCCCCCCCCC)cc3O2)cc1 [Compound 8a, 7,4’-di-O-nonylnaringenin]
cytotoxic / antiproliferative effect against HT-29 (in words) (HT-29 cell line): no effect
IC50 (3T3-L1 cell line; [5]): > 100 µg/mL
cytotoxic / antiproliferative effect against 3T3-L1 (in words) (3T3-L1 cell line): no effect

Structure (SMILES): CCCCCCCOc1ccc([C@@H]2CC(=NO)c3c(O)cc(OCCCCCCC)cc3O2)cc1 [Compound 4b, 7,4’-di-O-heptylnaringenin oxime]
adhesion of E. coli to HT-29 higher than in the control ([3]; 25 µg/mL): 17 fold
adhesion of E. coli to HT-29 higher than in the control ([3]; 50 µg/mL): 5 fold
level of adherence of E. coli to HT-29 ([3]; 1–10 µg/mL or 75–100 µg/mL): very low
IC50 (HT-29 cell line; [4]): 43.4 µg/mL (≈ 89.6 µM)
IC50 (3T3-L1 cell line; [5]): > 100 µg/mL

Structure (SMILES): CCCCCCCCOc1ccc([C@@H]2CC(=NO)c3c(O)cc(OCCCCCCCC)cc3O2)cc1 [Compound 6b, 7,4’-di-O-octylnaringenin oxime]
IC50 (HT-29 cell line; [4]): > 100 µg/mL
IC50 (3T3-L1 cell line; [5]): > 100 µg/mL

Structure (SMILES): CCCCCCCOc1cc(O)c2c(c1)O[C@H](c1ccc(O)cc1)CC2=NO [Compound 3b, 7-O-heptylnaringenin oxime]
IC50 (HT-29 cell line; [4]): 29.1 µg/mL (≈ 75.6 µM)
cytotoxic / antiproliferative effect against HT-29 (in words) (HT-29 cell line): cytotoxic effects
IC50 (3T3-L1 cell line; [5]): 32.1 µg/mL (≈ 83.3 µM)

Structure (SMILES): CCCCCCOc1cc(O)c2c(c1)O[C@H](c1ccc(O)cc1)CC2=NO [Compound 1b, 7-O-hexylnaringenin oxime]
attachment of E. coli to 3T3-L1 decreased to ([2]; 1 µg/mL): 63%
adherence of E. coli to 3T3-L1 ([2]; 25 µg/mL): practically not observed
IC50 (HT-29 cell line; [4]): 38.4 µg/mL (≈ 103 µM)
cytotoxic / antiproliferative effect against HT-29 (in words) (HT-29 cell line): cytotoxic effects
IC50 (3T3-L1 cell line; [5]): 35 µg/mL (≈ 94.2 µM)

Structure (SMILES): CCCCCCCCCOc1cc(O)c2c(c1)O[C@H](c1ccc(O)cc1)CC2=O [Compound 7a, 7-O-nonylnaringenin]
effect on adhesion of E. faecalis to 3T3-L1 (in words) [1]: often actually limited the attachment
IC50 (HT-29 cell line; [4]): 46.7 µg/mL (≈ 117 µM)
cytotoxic / antiproliferative effect against HT-29 (in words) (HT-29 cell line): antiproliferative activity
IC50 (3T3-L1 cell line; [5]): 22.2 µg/mL (≈ 55.8 µM)
cytotoxic / antiproliferative effect against 3T3-L1 (in words) (3T3-L1 cell line): cytotoxic activity
